Reference: publication PMC12677699, “Utilizing Proteolytic‐Resistant Nano‐Short Peptide Based on Naphthyl Tail‐Anchored to Combat Bacterial Infections” (Advanced Science, 2025)
Converted amounts (≈) assume the structure as drawn. Non-standard residues stand in square brackets, D forms with d. Residues, ends and D or L forms follow the SMILES beside them. ξ: configuration not given here. ξAhp(2) = CCCCCC(N)C(=O)O

Columns and labels:
[1] = tested on: E. coli ATCC 25922; assay: Respiratory chain dehydrogenase activity, RT reduction; assay type: cell-based, Escherichia coli; details: 16 × 10^−6 M, E. coli ATCC 25922, 1.5 h, 37 °C; n = 3
Protocol: (§1) The inhibitory effects of nano‐short peptides on RCD activity in bacteria were evaluated using an RT reduction assay.^[ [58] ^] Logarithmic growth stage E. coli ATCC 25922 and S. aureus ATCC 29213 bacterial solutions were diluted to OD600 = 0.4 in MHB liquid medium. A mixed solution was prepared by combining RT (1 mg mL^−1), glucose (100 × 10^−3 M), and Tris‐HCl buffer (50 × 10^−3 M, pH 8.6) in equal volumes (1:1:1). In 96‐well microplates, serial dilutions of nano‐short peptides were prepared using the mixed solution, followed by addition of an equal volume of bacterial suspension. Following incubation at 37 °C for 1.5 h, the absorbance at 492 nm was measured using a microplate reader, with untreated bacterial suspensions serving as controls.

[2] = LPS binding, BODIPY-TR-cadaverine displacement; details: BC displacement, polymyxin B 10 µg mL^−1 = 100%, n = 3
Protocol: (§2) The binding ability of nano‐short peptides to LPS and LTA was evaluated using a BODIPY‐TR‐cadaverine (BC) displacement assay.^[ [59] ^] Test solutions containing LPS or LTA (50 µg mL^−1) were pre‐incubated with BC dye (5 µg mL^−1) for 4 h in the dark. Peptide solutions at varying concentrations were then mixed with the LPS or LTA, polymyxin B (final concentration 10 µg mL^−1) was used as a positive control, and LPS or LTA mixed with dye solution was used as a negative control. The fluorescence intensity (excitation λ = 580 nm, emission λ = 620 nm) was measured. %ΔF (au) = [(F treated – F negative control)/(F positive control – F negative control)] × 100%.

[3] = tested on: S. aureus ATCC 29213; assay: Cell wall permeability, NPN; assay type: cell-based, Staphylococcus aureus; details: n = 3
Protocol: The NPN fluorescent probe was used to assess the permeability of cell wall.^[ [64] ^] A logarithmic phase culture of S. aureus ATCC 29213 bacterial solution was diluted to OD600 = 0.2 in a 5 × 10^−3 M HEPES buffer (pH = 7.4 with 5 × 10^−3 M glucose). Following the addition of NPN (final concentration: 10 × 10^−6 M), the mixture was incubated for 30 min in the dark. Subsequently, the bacterial suspension was mixed with an equal volume of nano‐short peptides solution at different concentrations. […] Fluorescence intensity was measured (excitation λ = 350 nm, emission λ = 420 nm) using a microplate reader. The percentage of outer membrane permeability was calculated as: Permeability% = [(F treated – F negative control)/(F positive control – F negative control)] × 100%.

[4] = tested on: S. aureus 29213; assay type: cell-based, Staphylococcus aureus
Protocol: (§3) The MIC values of the nano‐short peptides were determined according to standard protocols.^[ [63] ^] Bacterial strains were revived from cryopreservation and cultured in Mueller–Hinton broth (MHB) to logarithmic growth phase, then diluted to a final density of 0.5–1 × 10⁶ CFU mL^−1. Serial dilutions of the nano‐short peptides were prepared in 0.2% bovine serum albumin (BSA) using a 96‐well plate format. Equal volumes of peptide solutions and bacterial suspensions were combined and incubated at 37 °C for 20–22 h. Bacterial growth was assessed by measuring absorbance at 492 nm, with MHB alone (negative control) and untreated bacterial suspension (positive control) included for reference.

[5] = tested on: S. aureus 25923; assay type: cell-based, Staphylococcus aureus
Protocol: as §3

[6] = tested on: E. coli ATCC 25922; assay: Serum tolerance assay (MIC after incubation with serum); assay type: cell-based, Escherichia coli; details: 4 h of incubation with various serum concentrations
Protocol: The serum stability of nano‐short peptides was evaluated by incubating peptide solutions with fetal bovine serum (FBS), which was at concentrations of 25%, 50%, and 100% (diluted in 0.2% BSA solution). Following 4 h of incubation, the antimicrobial activity was determined by measuring the MIC against the test strains.

[7] = tested on: MRSA 43300; assay type: cell-based, Methicillin-Resistant Staphylococcus aureus
Protocol: as §3

[8] = tested on: S. typhimurium 7731; assay type: cell-based, Salmonella typhimurium
Protocol: as §3

[9] = tested on: S. typhimurium 14028; assay type: cell-based, Salmonella typhimurium
Protocol: as §3

[10] = tested on: S. pullorum C7913; assay type: cell-based
Protocol: as §3

[11] = tested on: S. epidermidis 12228; assay type: cell-based, Staphylococcus epidermidis
Protocol: as §3

[12] = tested on: S. aureus ATCC 29213; assay: Respiratory chain dehydrogenase activity, RT reduction; assay type: cell-based, Staphylococcus aureus; details: 16 × 10^−6 M, S. aureus ATCC 29213, 1.5 h, 37 °C; n = 3
Protocol: as §1

[13] = LTA binding, BODIPY-TR-cadaverine displacement; details: BC displacement, n = 3
Protocol: as §2

[14] = tested on: P. aeruginosa PAO1; assay type: cell-based, Pseudomonas aeruginosa
Protocol: as §3

[15] = tested on: P. aeruginosa 27853; assay type: cell-based, Pseudomonas aeruginosa
Protocol: as §3

[16] = tested on: S. aureus ATCC 29213; assay: ROS generation, DCFH-DA; assay type: cell-based, Staphylococcus aureus; details: 16 × 10^−6 M, S. aureus ATCC 29213, DCFH-DA, 1 h; n = 3
Protocol: (§4) ROS accumulation levels were assessed by the fluorescent probe DCFH‐DA.^[ [63] ^] Logarithmic growth stage E. coli ATCC 25922 and S. aureus ATCC 29213 bacterial solutions were diluted to OD600 = 0.4 in PBS (pH = 7.4, 10 × 10^−3 M), followed by incubation with DCFH‐DA final concentration of 10 × 10^−6 M) for 30 min at 37 °C. Subsequently, the bacterial suspensions were then mixed with different concentrations of nano‐short peptides dilutions in equal volumes in a 96‐well plate and continued to incubate for 1 h (37 °C). Finally, the fluorescence intensity was measured using a microplate reader (excitation λ = 488 nm, emission λ = 525 nm).

[17] = tested on: E. coli ATCC 25922; assay: ROS generation, DCFH-DA; assay type: cell-based, Escherichia coli; details: 16 × 10^−6 M, E. coli ATCC 25922, DCFH-DA, 1 h; n = 3
Protocol: as §4

## CCCCCC(N)C(=O)NC(CCCCC)C(=O)NC(CCCCC)C(=O)NC(CCCCC)C(=O)N[C@H](CCCNC(=N)N)C(=O)N[C@@H](CCCNC(=N)N)C(=O)N[C@@H](CCCNC(=N)N)C(=O)N1CCC[C@H]1C(=O)O (stereo partly shown) [Peptide B4] (H-[ξAhp(2)][ξAhp(2)][ξAhp(2)][ξAhp(2)][dR]RRP-OH; N-terminus assumed)
[1]
  RCD activity reduced to: 70.75%
[2]; 8 × 10^−6 M
  LPS binding, % of polymyxin B's binding efficiency: 40.51%
[2]; 16 × 10^−6 M
  LPS binding, % of polymyxin B's binding efficiency: 54.24%
[3]; 8 × 10^−6 M
  cell wall permeabilization, ciprofloxacin as the reference: 19.49%
[3]; 16 × 10^−6 M
  cell wall permeabilization, ciprofloxacin as the reference: 37.80%
[4]
  MIC, S. aureus 29213: 16 µM (≈ 17.5 µg/mL)
[5]
  MIC, S. aureus 25923: 32 µM (≈ 35 µg/mL)
[6]
  antimicrobial capacity after serum incubation: retained their original antimicrobial capacity
[7]
  MIC, MRSA 43300: 16 µM (≈ 17.5 µg/mL)
[8]
  MIC, S. typhimurium 7731: 32 µM (≈ 35 µg/mL)
[9]
  MIC, S. typhimurium 14028: 128 µM (≈ 140 µg/mL)
[10]
  MIC, S. pullorum C7913: 16 µM (≈ 17.5 µg/mL)
[11]
  MIC, S. epidermidis 12228: 32 µM (≈ 35 µg/mL)
[12]
  RCD activity reduced to: 34.12%
[13]; 8 × 10^−6 M
  LTA binding capacity, % of the antibiotic control: 85.77%
[13]; 16 × 10^−6 M
  LTA binding capacity, % of the antibiotic control: 96.79%
[14]
  MIC, P. aeruginosa PAO1: 256 µM (≈ 280 µg/mL)
[15]
  MIC, P. aeruginosa 27853: 16 µM (≈ 17.5 µg/mL)
[16]
  increase of ROS content vs untreated bacteria: 1.38 fold
[17]
  increase of ROS content vs untreated bacteria: 1.51 fold

## N=C(N)NCCC[C@H](NC(=O)[C@@H](CCCNC(=N)N)NC(=O)[C@H](Cc1cccc2ccccc12)NC(=O)[C@H](Cc1cccc2ccccc12)NC(=O)[C@H](Cc1cccc2ccccc12)NC(=O)[C@@H](N)Cc1cccc2ccccc12)C(=O)N[C@@H](CCCNC(=N)N)C(=O)N1CCC[C@H]1C(=O)O (stereo in doubt) [Peptide N4]
[1]
  RCD activity reduced to: 60.10%
[2]; 8 × 10^−6 M
  LPS binding, % of polymyxin B's binding efficiency: 60.67%
[2]; 16 × 10^−6 M
  LPS binding, % of polymyxin B's binding efficiency: 99.47%
[3]; 8 × 10^−6 M
  cell wall permeabilization, ciprofloxacin as the reference: 48.48%
[3]; 16 × 10^−6 M
  cell wall permeabilization, ciprofloxacin as the reference: 110.54%
[4]
  MIC, S. aureus 29213: 4 µM (≈ 5.49 µg/mL)
[5]
  MIC, S. aureus 25923: 4 µM (≈ 5.49 µg/mL)
[6]
  antimicrobial capacity after serum incubation: retained their original antimicrobial capacity
[7]
  MIC, MRSA 43300: 4 µM (≈ 5.49 µg/mL)
[8]
  MIC, S. typhimurium 7731: 8 µM (≈ 11 µg/mL)
[9]
  MIC, S. typhimurium 14028: 8 µM (≈ 11 µg/mL)
[10]
  MIC, S. pullorum C7913: 4 µM (≈ 5.49 µg/mL)
[11]
  MIC, S. epidermidis 12228: 4 µM (≈ 5.49 µg/mL)
[12]
  RCD activity reduced to: 18.84%
[13]; 8 × 10^−6 M
  LTA binding capacity, % of the antibiotic control: 65.60%
[13]; 16 × 10^−6 M
  LTA binding capacity, % of the antibiotic control: 73.08%
[14]
  MIC, P. aeruginosa PAO1: 4 µM (≈ 5.49 µg/mL)
[15]
  MIC, P. aeruginosa 27853: 8 µM (≈ 11 µg/mL)
[16]
  increase of ROS content vs untreated bacteria: 1.83 fold
[17]
  increase of ROS content vs untreated bacteria: 2.26 fold
